Four compounds from PubChem BioAssay AID1259407 (Chemical Carcinogenesis Research Information System (CCRIS), 2018) can be followed below.

Activity calls are given as the source filed them. The rule behind the calls is not given here.

This data set concerns CCRIS mutagenicity, Ames/micronucleus/aberration tests. As to the kind of experiment: CCRIS mutagenicity studies.
Where [1] appears, read: Test System: AMES SALMONELLA TYPHIMURIUM, Strain/Indicator: TA97, Metabolic Activation: NONE, Method: PREINCUBATION
[2] abbreviates: Test System: AMES SALMONELLA TYPHIMURIUM, Strain/Indicator: TA98, Metabolic Activation: NONE, Method: PREINCUBATION
[3] abbreviates: Test System: AMES SALMONELLA TYPHIMURIUM, Strain/Indicator: TA100, Metabolic Activation: HAMSTER, LIVER, S-9, AROCLOR 1254 (10%), Method: PREINCUBATION
Setting [4] is: Test System: AMES SALMONELLA TYPHIMURIUM, Strain/Indicator: TA100, Metabolic Activation: NONE, Method: PREINCUBATION
Setting [5] is: Test System: AMES SALMONELLA TYPHIMURIUM, Strain/Indicator: TA100, Metabolic Activation: RAT, LIVER, S-9, AROCLOR 1254 (10%), Method: PREINCUBATION
Setting [6] is: Test System: AMES SALMONELLA TYPHIMURIUM, Strain/Indicator: TA1535, Metabolic Activation: NONE, Method: PREINCUBATION
The mark [7] stands for this setting: Test System: AMES SALMONELLA TYPHIMURIUM, Strain/Indicator: TA98, Metabolic Activation: NONE, Method: STANDARD PLATE.

For `c1ccc(COCc2ccccc2)cc1`, the mutagenic call is “inactive; negative” (Test System: AMES SALMONELLA TYPHIMURIUM, Strain/Indicator: TA97, Metabolic Activation: HAMSTER, LIVER, S-9, AROCLOR 1254 (10 OR 30%), Method: PREINCUBATION); “inactive; negative” under setting [1]; “inactive; negative” (Test System: AMES SALMONELLA TYPHIMURIUM, Strain/Indicator: TA97, Metabolic Activation: RAT, LIVER, S-9, AROCLOR 1254 (10 OR 30%), Method: PREINCUBATION); “inactive; negative” (Test System: AMES SALMONELLA TYPHIMURIUM, Strain/Indicator: TA98, Metabolic Activation: HAMSTER, LIVER, S-9, AROCLOR 1254 (10 OR 30%), Method: PREINCUBATION); “inactive; negative” under setting [2]; “inactive; negative” (Test System: AMES SALMONELLA TYPHIMURIUM, Strain/Indicator: TA98, Metabolic Activation: RAT, LIVER, S-9, AROCLOR 1254 (10 OR 30%), Method: PREINCUBATION). The mutagenic call (Test System: AMES SALMONELLA TYPHIMURIUM, Strain/Indicator: TA98, Metabolic Activation: RAT, LIVER, S-9, AROCLOR 1254 (30%), Method: PREINCUBATION) was “inactive; negative”; the mutagenic call under setting [3] was “inactive; negative”; the mutagenic call (Test System: AMES SALMONELLA TYPHIMURIUM, Strain/Indicator: TA100, Metabolic Activation: HAMSTER, LIVER, S-9, AROCLOR 1254 (30%), Method: PREINCUBATION) is “inactive; negative”; the mutagenic call under setting [4] was “inactive; negative”; the mutagenic call under setting [5] was “inactive; negative”; the mutagenic call (Test System: AMES SALMONELLA TYPHIMURIUM, Strain/Indicator: TA100, Metabolic Activation: RAT, LIVER, S-9, AROCLOR 1254 (30%), Method: PREINCUBATION) was “inactive; negative”. Also, the mutagenic call is, setting by setting: (Test System: AMES SALMONELLA TYPHIMURIUM, Strain/Indicator: TA1535, Metabolic Activation: HAMSTER, LIVER, S-9, AROCLOR 1254 (10 OR 30%), Method: PREINCUBATION) “inactive; negative”; under setting [6], “inactive; negative”; (Test System: AMES SALMONELLA TYPHIMURIUM, Strain/Indicator: TA1535, Metabolic Activation: RAT, LIVER, S-9, AROCLOR 1254 (10 OR 30%), Method: PREINCUBATION) “inactive; negative”.

`COc1ccc(-c2nc(-c3ccc(C)cc3C)[nH]c2-c2ccc(OC)cc2)cc1`: the mutagenic call under setting [7] is “active; positive”; the mutagenic call (Test System: AMES SALMONELLA TYPHIMURIUM, Strain/Indicator: TA98, Metabolic Activation: RAT LIVER S-9, 3-METHYLCHOLANTHRENE, SODIUM PHENOBARBITAL, Method: STANDARD PLATE) is “inactive; negative”; the mutagenic call (Test System: AMES SALMONELLA TYPHIMURIUM, Strain/Indicator: TA100, Metabolic Activation: NONE, Method: STANDARD PLATE) is “active; positive”; the mutagenic call (Test System: AMES SALMONELLA TYPHIMURIUM, Strain/Indicator: TA100, Metabolic Activation: RAT LIVER S-9, 3-METHYLCHOLANTHRENE, SODIUM PHENOBARBITAL, Method: STANDARD PLATE) was “inactive; negative”.

`O=Cc1cn([C@@H]2O[C@H](CO)[C@@H](O)[C@H]2O)c(=O)[nH]c1=O`: for the setting “Test System: CHINESE HAMSTER V-79, Strain/Indicator: V-79 (HPRT)/6-THIOGUANINE, Metabolic Activation: NONE, Method: STANDARD PLATE”, the mutagenic call is “inactive; negative”.

For the compound `CC(=O)Nc1ccc(N=Nc2cc(C)ccc2O)cc1`, the mutagenic call reads like this: (End Point: IN VITRO CHROMOSOMAL ABERRATIONS, Test System: CHO CELLS, Metabolic Activation: NONE) “inactive; negative”; (End Point: IN VITRO CHROMOSOMAL ABERRATIONS, Test System: CHO CELLS, Metabolic Activation: RAT, LIVER, S-9, AROCLOR 1254) “inactive; negative”; (Test System: AMES SALMONELLA TYPHIMURIUM, Strain/Indicator: TA97, Metabolic Activation: HAMSTER, LIVER, S-9, AROCLOR 1254 (10%), Method: PREINCUBATION) “active; positive”; under setting [1], “active; positive”; (Test System: AMES SALMONELLA TYPHIMURIUM, Strain/Indicator: TA97, Metabolic Activation: RAT, LIVER, S-9, AROCLOR 1254 (10%), Method: PREINCUBATION) “active; positive”; (Test System: AMES SALMONELLA TYPHIMURIUM, Strain/Indicator: TA98, Metabolic Activation: HAMSTER, LIVER, S-9, AROCLOR 1254 (5, 10, 20%), Method: PREINCUBATION) “active; positive”. In addition, the mutagenic call runs as follows: (Test System: AMES SALMONELLA TYPHIMURIUM, Strain/Indicator: TA98, Metabolic Activation: HAMSTER, LIVER, S-9, AROCLOR 1254 (10%), Method: PREINCUBATION) “active; positive”; (Test System: AMES SALMONELLA TYPHIMURIUM, Strain/Indicator: TA98, Metabolic Activation: HAMSTER, LIVER, S-9, AROCLOR 1254, Method: STANDARD PLATE) “active; positive”; (Test System: AMES SALMONELLA TYPHIMURIUM, Strain/Indicator: TA98, Metabolic Activation: HAMSTER, LIVER, S-9, Method: PREINCUBATION (PRIVAL METHOD)) “active; positive”; under setting [2], “active; positive”; under setting [7], “active; positive”; (Test System: AMES SALMONELLA TYPHIMURIUM, Strain/Indicator: TA98, Metabolic Activation: RAT, LIVER, S-9, AROCLOR 1254 (10%), Method: PREINCUBATION) “active; positive”. The mutagenic call by setting is: (Test System: AMES SALMONELLA TYPHIMURIUM, Strain/Indicator: TA98, Metabolic Activation: RAT, LIVER, S-9, AROCLOR 1254, HAMSTER, LIVER, S-9, AROCLOR 1254, Method: STANDARD PLATE) “active; positive”; under setting [3], “active; positive”; (Test System: AMES SALMONELLA TYPHIMURIUM, Strain/Indicator: TA100, Metabolic Activation: HAMSTER, LIVER, S-9, AROCLOR 1254, Method: STANDARD PLATE) “active; positive”; (Test System: AMES SALMONELLA TYPHIMURIUM, Strain/Indicator: TA100, Metabolic Activation: HAMSTER, LIVER, S-9, Method: PREINCUBATION (PRIVAL METHOD)) “active; positive”; under setting [4], “active; positive”; under setting [5], “active; positive”. Moreover, the mutagenic call runs as follows: (Test System: AMES SALMONELLA TYPHIMURIUM, Strain/Indicator: TA1535, Metabolic Activation: HAMSTER, LIVER, S-9, AROCLOR 1254 (10%), Method: PREINCUBATION) “inactive; negative”; under setting [6], “inactive; negative”; (Test System: AMES SALMONELLA TYPHIMURIUM, Strain/Indicator: TA1535, Metabolic Activation: RAT, LIVER, S-9, AROCLOR 1254 (10%), Method: PREINCUBATION) “inactive; negative”; (Test System: AMES SALMONELLA TYPHIMURIUM, Strain/Indicator: TA1537, Metabolic Activation: NONE, Method: STANDARD PLATE) “active; positive”; (Test System: AMES SALMONELLA TYPHIMURIUM, Strain/Indicator: TA1537, Metabolic Activation: RAT, LIVER, S-9, AROCLOR 1254, HAMSTER, LIVER, S-9, AROCLOR 1254, Method: STANDARD PLATE) “active; positive”; (Test System: AMES SALMONELLA TYPHIMURIUM, Strain/Indicator: TA1538, Metabolic Activation: NONE, Method: STANDARD PLATE) “active; positive”. Moreover, the mutagenic call runs as follows: (Test System: AMES SALMONELLA TYPHIMURIUM, Strain/Indicator: TA1538, Metabolic Activation: RAT, LIVER, S-9, AROCLOR 1254, HAMSTER, LIVER, S-9, AROCLOR 1254, Method: STANDARD PLATE) “active; positive”; (Test System: Mouse lymphoma, Strain/Indicator: L5178Y (tk+/tk-), Metabolic Activation: None, Method: Suspension/Plate) “inactive; negative”; (Test System: Mouse lymphoma, Strain/Indicator: L5178Y (tk+/tk-), Metabolic Activation: Rat, Liver, S-9, Aroclor 1254, Method: Suspension/Plate) “inactive; inconclusive (previous evaluation negative)”.
